Like-named read-outs stand apart in the source and are kept apart here. Marks after values point to notes of the source that are not given here. Values belong to the compound of their own block, whether it stands above or below them. Bridge positions count the residues as written; N and C are the ends. Square brackets hold non-standard residues; d marks the D form. 2Nal = N[C@@H](Cc1ccc2ccccc2c1)C(=O)O
What was measured:
[1] = Half-life in vitro in the vitreous; assay type: in vitro ADME
Protocol: The inventors' calculations establish, for the first time, the feasibility of substantially inhibiting C3 activation at levels at or above those expected to be present in the vitreous of a subject with wet ARMD by sustained intravitreal delivery of amounts as little as 5 μg/day of a therapeutic agent, which amounts may, according to the invention, be delivered by intravitreal implant technology over prolonged periods of time (as described further below). The inventors' calculations also establish, for the first time, the feasibility of substantially inhibiting C3 activation at levels at or above those expected to be present in the vitreous of a subject with dry ARMD by sustained intravitreal delivery of amounts as low as 2 μg/day of a therapeutic agent, which amounts may be delivered over prolonged periods of time by intravitreal implant technology according to the present invention.

[2] = system: choroidal neovascularization (CNV) in C57BL/6 mice; experiment: Laser-induced CNV in a mouse model, intravitreal injection; assay type: in vivo
Description: C57BL/6 mice (The Jackson Laboratory) were anesthetized with a mixture of ketamine/xylazine (8:1) and the pupils were dilated with a single drop of 1% tropicamide. Krypton red laser photocoagulation (50-μm spot size, 0.05 s duration, 250 mW) will be used to generate laser spots in surrounding the optic nerve by using a hand-held coverslip as a contact lens. Formation of a bubble at the laser spot indicated rupture of Bruch's membrane. Multiple laser spots were generated in each eye.
Different groups of mice were injected with different quantities of this molecule or of mouse albumin (as a control) to determine the effect of dosage on the efficacy and toxicity of VCP. Briefly, after anesthesia and dilation of the pupil, the anterior chamber was entered via the limbus with a 28-gauge needle to decompress the eye. Under an operating microscope, which allows visualization of the retina, a 32-gauge (blunt) needle was passed through a scleral incision, just behind the limbus, into the vitreous cavity.
Seven days after CNV induction incidence of CNV was determined. Briefly, the mice were perfused with a FITC-dextran (Sigma-Aldrich) solution just prior to sacrifice. After the eyes were excised and fixed for 1 h in 10% phosphate-buffered formalin, RPE-choroid-scleral flat mounts were prepared as follows. The cornea and the lens were removed and the neurosensory retina carefully dissected from the eyecup. Five radial cuts were from the edge of the eyecup to the equator; the sclera-choroidretinal pigment epithelium (RPE) complex was flat-mounted, with the sclera facing down, on a glass slide in Aquamount. The flat mounts were stained with an anti-elastin specific monoclonal antibody (Sigma-Aldrich) and then with a CY3-conjugated secondary antibody (Sigma-Aldrich) at a suitable concentration, e.g., at a 1/200 dilution of a 1.0 mg/ml stock solution. Mounts were observed under confocal microscopy (LSM510, Zeiss). The prominent neovascular growth stained green whereas the underlying elastin in the Bruch's membrane stained red within a laser spot. Images were analyzed with the image analysis software AxioVision (Zeiss). The amount of CNV was determined by measuring the total green-fluorescent surface area in each picture. A mean green-fluorescent area was obtained for the various groups and compared using student t-test for comparisons between groups and ANOVA for comparison among multiple groups. […] Deposition of a variety of different complement components is also measured using immunological techniques and/or RT-PCR.
Seven days after CNV induction, incidence of CNV was determined. Just prior to sacrifice, the mice were perfused with a FITC-dextran (Sigma-Aldrich) solution. After the eyes were excised and fixed in 10% phosphate-buffered formalin, RPE-choroid-scleral flat mounts were prepared and stained with an anti-elastin specific monoclonal antibody (Sigma-Aldrich) and then with a CY3-conjugated secondary antibody (Sigma-Aldrich). Mounts were observed under confocal microscopy (LSM510, Zeiss). The prominent neovascular growth stained green whereas the underlying elastin in the Bruch's membrane stained red within a laser spot. […] Images were analyzed with the image analysis software AxioVision (Zeiss). The amount of CNV was determined by measuring the total green-fluorescent surface area in each picture. A mean green-fluorescent area was obtained for the various groups and compared using student t-test for comparisons between groups and ANOVA for comparison among multiple groups. Results are described in Table 2 and in the graph in FIG. 4.

[3] = system: non-primate C3; details: reported; cited from earlier work
[4] = in vivo; cited from earlier work

half-life [1]: ~6.9 h
Compound: CC[C@H](C)[C@H](NC(C)=O)C(=O)N[C@H]1CSSC[C@@H](C(=O)N[C@H](C(N)=O)[C@@H](C)O)NC(=O)[C@H](CCCNC(=N)N)NC(=O)[C@H](Cc2cnc[nH]2)NC(=O)[C@H](C)NC(=O)CNC(=O)[C@H](Cc2c[nH]c3ccccc23)NC(=O)[C@H](CC(=O)O)NC(=O)[C@H](CCC(N)=O)NC(=O)[C@H](Cc2cn(C)c3ccccc23)NC(=O)[C@H](C(C)C)NC1=O [Ac-V4(1-MeW)/H9A]

Compound: CC[C@H](C)[C@H](N)C(=O)N[C@H]1CSSC[C@@H](C(=O)N[C@H](C(N)=O)[C@@H](C)O)NC(=O)[C@H](CCCN=C(N)N)NC(=O)[C@H](Cc2cnc[nH]2)NC(=O)[C@H](Cc2cnc[nH]2)NC(=O)CNC(=O)[C@H](Cc2c[nH]c3ccccc23)NC(=O)[C@H](CC(=O)O)NC(=O)[C@H](CCC(N)=O)NC(=O)[C@H](C(C)C)NC(=O)[C@H](C(C)C)NC1=O [compstatin]
Mean Difference (I-J), FldAreaGreen ([2]; I = Compstatin 30 ug, J = VCP 30 ug, day 7): −317.4
Mean Difference (I-J), FldAreaGreen ([2]; I = Mouse Albumin Control, J = test agent 30 ug/eye, day 7): 3286*
Mean Difference (I-J), FldAreaGreen ([2]; I = No-treatment control, J = test agent 30 ug/eye, green-fluorescent CNV area, day 7, Tamhane): 5195*
Mean Difference (I-J), FldAreaGreen ([2]; I = test agent 30 ug/eye, J = Mouse Albumin Control, day 7): −3286*
Mean Difference (I-J), FldAreaGreen ([2]; I = test agent 30 ug/eye, J = No-treatment control, day 7): −5195*
Mean Difference (I-J), FldAreaGreen ([2]; I = test agent 30 ug/eye, J = VCP 10 ug, day 7): −5862*
affinity for non-primate C3 compared with human or non-human primate C3 [3]: lower
half-life [4]: < 0.25 h

Compound: Ac-ICV(2-Nal)QDWGAHRCT-CONH2 (Ac-ICV[2Nal]QDWGAHRCT-NH2; disulfide 2-12 (inferred)) [Ac-V4(2-Nal)/H9A]
mean area of CNV relative to either no treatment or administration of albumin ([2]; 30 μg intravitreal, 24 hrs after laser induction, seven days after CNV induction): statistically significant reduction
effectiveness compared with VCP on a μg basis ([2]; 30 μg/eye, difference not statistically significant at these sample sizes): somewhat more effective than VCP
development of CNV in an animal model ([2]; summary of Example 1): effective in significantly inhibiting the development of CNV
